Results taken from patent publication US20110294843A1, “ADMINISTRATION SCHEME OF POLAR OPIOID METABOLITES FOR POST-OPERATIVE PAIN MANAGEMENT” (PAION UK Limited, priority 2008, published 2011).
Like-named read-outs stand apart in the source and are kept apart here.

Test: Pharmacokinetics of M6G at single and multiple intravenous doses in healthy volunteers
Type: in vivo, human
Conditions: for MRT inf: read-out: MRT0-∞; for Vd: read-out: Vss
Experimental: Healthy male and female subjects were divided into two groups (A and B) with 12 in each. Group A received three single intravenous infusions of M6G over 5 mins at levels of 15, 30 and 45 mg/70 kg in random order, having taken 50 mg of naloxone orally 24 hrs beforehand. There was a seven-day wash-out period between each dose. Blood samples were taken pre-dose and at the following time-points: 3, 5, 15, 30 mins and 1, 2, 3, 4, 6, 12 and 24 hrs after the start of the infusion. Group, B received five, 15 mg/70 kg, intravenous infusions of M6G, each over five minutes, at 6-hourly intervals, having taken a 50 mg oral dose of naloxone 24 hrs before the first infusion. Blood samples were taken before each of the 5 doses, and at 3, 5, 15, 30 mins and at 1, 2, 3 and 4 hrs after the initiation of the 1st and 5th infusions and at 6 hrs after the 5th dose. Vital signs (supine blood pressure, pulse, respiratory rate and oral temperature), respiration rate, pulse oximetry and adverse events were monitored during the study. Plasma levels of M6G were measured using HPLC/ms/ms.

[1] = both sexes, human, plasma, intravenous, 15 mg/70 kg, multiple dose, Dose 1-15 mg, Geometric Mean
[2] = both sexes, human, plasma, intravenous, 15 mg/70 kg, multiple dose, Dose 1-15 mg, Mean
[3] = both sexes, human, plasma, intravenous, 15 mg/70 kg, multiple dose, Dose 1-15 mg, Median
[4] = both sexes, human, plasma, iv, 15 mg/70 kg, single 5 min iv infusion 15 mg, Geometric Mean
[5] = both sexes, human, plasma, iv, 15 mg/70 kg, single 5 min iv infusion 15 mg, Mean

CN1CC[C@]23c4c5ccc(O)c4O[C@H]2[C@@H](OC2OC(C(=O)O)C(O)C(O)C2O)C=CC3[C@H]1C5 (stereo partly drawn) [M6G, (5α,6α)-7,8-Didehydro-4,5-epoxy-3-hydroxy-17-methylmorphinan-β-yl-β-D-glucopyranosiduronic acid]
average peak concentrations higher following Dose 5 than Dose 1 (15 mg 6-hourly iv infusions): approximately 25% | dose proportionality of exposure (Cmax, AUC0-t, AUC0-∞) (15, 30 and 45 mg single iv infusions): directly dose-proportional | concentration at 6 h (both sexes, human, plasma, 15 mg/70 kg, 6 hours after each dose, 15 mg 6-hourly iv, read-out: trough levels): 0.0639 ± 0.0165 µg/mL | clearance [1]: 119 mL/min | AUC(0-t) (both sexes, human, plasma, intravenous, 15 mg/70 kg, multiple dose, Dose 1-15 mg, Geometric Mean, read-out: AUC0-6): 1.91 µg·h/mL | AUC(0-inf) (both sexes, human, plasma, intravenous, 15 mg/70 kg, multiple dose, Dose 1-15 mg, Geometric Mean, read-out: AUC0-∞): 2.11 µg·h/mL | Cmax (both sexes, human, plasma, intravenous, 15 mg/70 kg, multiple dose, Dose 1-15 mg, Geometric Mean, read-out: Cmax): 1.84 µg/mL | MRT inf [1]: 2.07 h | Vd [1]: 14.7 L | half-life (both sexes, human, plasma, intravenous, 15 mg/70 kg, multiple dose, Dose 1-15 mg, Geometric Mean, read-out: t1/2 (converted)): 1.71 h | clearance [2]: 119 mL/min | AUC(0-t) (both sexes, human, plasma, intravenous, 15 mg/70 kg, multiple dose, Dose 1-15 mg, Mean, read-out: AUC0-6): 1.92 µg·h/mL | AUC(0-inf) (both sexes, human, plasma, intravenous, 15 mg/70 kg, multiple dose, Dose 1-15 mg, Mean, read-out: AUC0-∞): 2.13 µg·h/mL | Cmax (both sexes, human, plasma, intravenous, 15 mg/70 kg, multiple dose, Dose 1-15 mg, Mean, read-out: Cmax): 1.98 µg/mL | MRT inf [2]: 2.1 h | Vd [2]: 14.8 L | half-life (both sexes, human, plasma, intravenous, 15 mg/70 kg, multiple dose, Dose 1-15 mg, Mean, read-out: t1/2 (converted)): 1.73 h | clearance [3]: 113 mL/min | AUC(0-t) (both sexes, human, plasma, intravenous, 15 mg/70 kg, multiple dose, Dose 1-15 mg, Median, read-out: AUC0-6): 1.95 µg·h/mL | AUC(0-inf) (both sexes, human, plasma, intravenous, 15 mg/70 kg, multiple dose, Dose 1-15 mg, Median, read-out: AUC0-∞): 2.21 µg·h/mL | Cmax (both sexes, human, plasma, intravenous, 15 mg/70 kg, multiple dose, Dose 1-15 mg, Median, read-out: Cmax): 2.09 µg/mL | MRT inf [3]: 2.17 h | Vd [3]: 14.2 L | half-life (both sexes, human, plasma, intravenous, 15 mg/70 kg, multiple dose, Dose 1-15 mg, Median, read-out: t1/2 (converted)): 1.65 h | AUC (both sexes, human, plasma, intravenous, 15 mg/70 kg, multiple dose, Dose 5-15 mg, Geometric Mean, read-out: AUC24-30): 2.07 µg·h/mL | AUC (both sexes, human, plasma, intravenous, 15 mg/70 kg, multiple dose, Dose 5-15 mg, Geometric Mean, read-out: AUC24-∞): 2.17 µg·h/mL | Cmax (both sexes, human, plasma, intravenous, 15 mg/70 kg, multiple dose, Dose 5-15 mg, Geometric Mean, read-out: Cmax): 2.29 µg/mL | Vd (both sexes, human, plasma, intravenous, 15 mg/70 kg, multiple dose, Dose 5-15 mg, Geometric Mean): 11.9 L | half-life (both sexes, human, plasma, intravenous, 15 mg/70 kg, multiple dose, Dose 5-15 mg, Geometric Mean, read-out: t1/2 (converted)): 1.49 h | AUC (both sexes, human, plasma, intravenous, 15 mg/70 kg, multiple dose, Dose 5-15 mg, Mean, read-out: AUC24-30): 2.08 µg·h/mL | AUC (both sexes, human, plasma, intravenous, 15 mg/70 kg, multiple dose, Dose 5-15 mg, Mean, read-out: AUC24-∞): 2.19 µg·h/mL | Cmax (both sexes, human, plasma, intravenous, 15 mg/70 kg, multiple dose, Dose 5-15 mg, Mean, read-out: Cmax): 2.37 µg/mL | Vd (both sexes, human, plasma, intravenous, 15 mg/70 kg, multiple dose, Dose 5-15 mg, Mean): 12 L | half-life (both sexes, human, plasma, intravenous, 15 mg/70 kg, multiple dose, Dose 5-15 mg, Mean, read-out: t1/2 (converted)): 1.5 h | AUC (both sexes, human, plasma, intravenous, 15 mg/70 kg, multiple dose, Dose 5-15 mg, Median, read-out: AUC24-30): 2.09 µg·h/mL | AUC (both sexes, human, plasma, intravenous, 15 mg/70 kg, multiple dose, Dose 5-15 mg, Median, read-out: AUC24-∞): 2.21 µg·h/mL | Cmax (both sexes, human, plasma, intravenous, 15 mg/70 kg, multiple dose, Dose 5-15 mg, Median, read-out: Cmax): 2.37 µg/mL | Vd (both sexes, human, plasma, intravenous, 15 mg/70 kg, multiple dose, Dose 5-15 mg, Median): 12.2 L | half-life (both sexes, human, plasma, intravenous, 15 mg/70 kg, multiple dose, Dose 5-15 mg, Median, read-out: t1/2 (converted)): 1.56 h | AUC(0-t) (both sexes, human, plasma, intravenous, 15 mg/70 kg, single 5 min infusion 15 mg/70 kg, read-out: AUC0-t, Geometric LS means): 1.77 µg·h/mL | AUC(0-inf) (both sexes, human, plasma, intravenous, 15 mg/70 kg, single 5 min infusion 15 mg/70 kg, read-out: AUC0-∞, Geometric LS means): 1.88 µg·h/mL | Cmax (both sexes, human, plasma, intravenous, 15 mg/70 kg, single 5 min infusion 15 mg/70 kg, read-out: Cmax, Geometric LS means): 1.75 µg/mL | AUC(0-t) (both sexes, human, plasma, intravenous, 30 mg/70 kg, single 5 min infusion 30 mg/70 kg, read-out: AUC0-t, Geometric LS means): 3.88 µg·h/mL | AUC(0-inf) (both sexes, human, plasma, intravenous, 30 mg/70 kg, single 5 min infusion 30 mg/70 kg, read-out: AUC0-∞, Geometric LS means): 3.97 µg·h/mL | Cmax (both sexes, human, plasma, intravenous, 30 mg/70 kg, single 5 min infusion 30 mg/70 kg, read-out: Cmax, Geometric LS means): 3.7 µg/mL | AUC(0-t) (both sexes, human, plasma, intravenous, 45 mg/70 kg, single 5 min infusion 45 mg/70 kg, read-out: AUC0-t, Geometric LS means): 5.75 µg·h/mL | AUC(0-inf) (both sexes, human, plasma, intravenous, 45 mg/70 kg, single 5 min infusion 45 mg/70 kg, read-out: AUC0-∞, Geometric LS means): 5.85 µg·h/mL | Cmax (both sexes, human, plasma, intravenous, 45 mg/70 kg, single 5 min infusion 45 mg/70 kg, read-out: Cmax, Geometric LS means): 5.72 µg/mL | clearance [4]: 131 mL/min | AUC(0-inf) (both sexes, human, plasma, iv, 15 mg/70 kg, single 5 min iv infusion 15 mg, Geometric Mean, read-out: AUC0-∞): 1.91 µg·h/mL | Cmax (both sexes, human, plasma, iv, 15 mg/70 kg, single 5 min iv infusion 15 mg, Geometric Mean, read-out: Cmax): 1.75 µg/mL | MRT inf [4]: 1.64 h | Vd [4]: 12.9 L | half-life (both sexes, human, plasma, iv, 15 mg/70 kg, single 5 min iv infusion 15 mg, Geometric Mean, read-out: t½ (converted)): 1.46 h | clearance [5]: 133 mL/min | AUC(0-inf) (both sexes, human, plasma, iv, 15 mg/70 kg, single 5 min iv infusion 15 mg, Mean, read-out: AUC0-∞): 1.93 µg·h/mL | Cmax (both sexes, human, plasma, iv, 15 mg/70 kg, single 5 min iv infusion 15 mg, Mean, read-out: Cmax): 1.86 µg/mL | MRT inf [5]: 1.65 h
